Consider two molecules from patent US20030027243A1, “Antifungal compounds and methods of use” (Anadys Pharmaceuticals, Inc., priority 2000, published 2003).

The structures appear in SMILES notation.

What all share (assay): Broth microdilution antifungal susceptibility test (NCCLS M27A based), MIC
What all share (type): cell-based
What all share (settings): quality control range for control compounds, 35° C., 48 hours

Experiment [1] deals with Saccharomyces cerevisiae, e.g., CTY552. The source says: (§1) Non-limiting examples of such procedures test the candidate inhibitor compounds for antifungal activity against a panel of three strains: C. albicans, S. cerevisiae , and A. nidulans. One such procedure is based on the NCCLS M27A method (The National Committee for Clinical Laboratory Standards, Reference Method for Broth Microdilution Antifungal Susceptibility Testing of Yeasts; approved standard, 1997) to measure minimum inhibitory concentrations (MICs) and minimum fungicidal concentrations (MFCs). An overview of this of this protocol follows.
(§2) 3. RPMI-1640: 10.4 g powdered media (Sigma R-6504, w/ glutamine & w/o bicarbonate); 2.0 g NaHCO3 (Sigma S-6297); 34.53 g MOPS buffer (Sigma M-6270). Dissolve powdered media and NaHCO3 in 900 ml distilled water. Add MOPS and stir until dissolved. Adjust pH to 7.0 using 1N NaOH. Bring final volume to 1 liter, filter sterilize, and store at 4° C.
(§3) 1. Yeasts: Yeasts (Saccharonyces cerevisiae and Candida albicans) are cultured on Sabouraud dextrose agar (SDA) plates in a 35° C. incubator. Strains on SDA plates are stored at 4° C. and used as working stock cultures. Working stock plates are prepared once a month from frozen stocks of cells. Inoculum for susceptibility testing is prepared from fresh 24 hour cultures. 5-10 colonies are scraped from the plate and suspended in three milliliters of sterile 0.85% saline (8.5 g/liter NaCl). The cell density of the solution is determined by measuring the absorbance in a spectrophotometer (Shimadzu UV-1201S UV-VIS Spectrophotometer) set at 600 nm. An absorbance value between 0.1 and 0.4 is required for an accurate reading. […]
(§4) Stock solutions of control compounds (1.6 mg/ml, Amphotericin B or Itraconazole) are initially diluted in medium to a concentration of 32 ug/ml while stock solutions of test compounds (typically 12.8 mg/ml) are diluted to 256 ug/ml. […] If a stock solution of a test compound is not at 12.8 mg/ml, the appropriate dilution must be calculated. […]

Experiment [2] concerns Candida albicans, e.g., ATCC 10231.
Description: as §1, §2, §3, §4

For experiment [3], the system named is Aspergillus nidulans, e.g., NRRL 194 (ATCC 38163).
Description: as §1
3. RPMI-1640: 10.4 g powdered media (Sigma R-6504, w/ glutamine & w/o bicarbonate); 2.0 g NaHCO3 (Sigma S-6297); 34.53 g MOPS buffer (Sigma M-6270). Dissolve powdered media and NaHCO3 in 900 ml distilled water. Add MOPS and stir until dissolved. Adjust pH to 7.0 using 1N NaOH. […]
2. […] The turbidity of the solution is determined by measuring the absorbance in a spectrophotometer (Shimadzu UV-1201S UV-VIS Spectrophotometer) set at 600 nm. An absorbance value between 0.1 and 0.4 is required for an accurate reading. […]
as §4

`C[C@@H]1[C@H](O)[C@@H](C)/C=C/C=C/C=C/C=C/C=C/C=C/C=C/[C@H](O[C@@H]2O[C@H](C)[C@@H](O)[C@H](N)[C@@H]2O)C[C@@H]2O[C@](O)(C[C@@H](O)C[C@@H](O)[C@H](O)CC[C@@H](O)C[C@@H](O)CC(=O)O[C@H]1C)C[C@H](O)[C@H]2C(=O)O` [Am B, Amphotericin B]: the “Acceptable MIC range values” in experiment [1] was in the range of 0.25 to 1.0 µg/mL; in experiment [2] it was 0.25 to 1.0 µg/mL; in experiment [3], 0.5 to 2.0 µg/mL.
Take `CCC(C)n1ncn(-c2ccc(N3CCN(c4ccc(OCC5COC(Cn6cncn6)(c6ccc(Cl)cc6Cl)O5)cc4)CC3)cc2)c1=O` (centres unmarked) [Itraconazole]: the “Acceptable MIC range values” in experiment [2] and in experiment [3] was 0.25 to 1.0 µg/mL in each case.
